Laboratory results from patent EP4556003A1, “ANTI-OBESITY AND ANTI-DIABETIC ACTIVITY OF BROMINATED DITERPENES FROM RED ALGAE OF THE GENUS LAURENCIA AND APPLICATIONS THEREOF” (priority 2023, dated 2025).

Legend:
[1] = tested on: 3T3-L1 cells; assay: Quantitative PCR of relative mRNA expression in cell culture samples; format: cell-based, Mouse; details: for Gapdh expression / Hk2 expression / Pfkfb3 expression: 62.5 µM for 24 h
Method: Mouse 3T3-L1 preadipocytes were maintained in proliferation medium containing DMEM supplemented with 10% (v/v) heat inactivated NBCS and 1% (v/v) penicillin-streptomycin at 37 °C with 5% CO2, humidified atmosphere. Cells were seeded in T-75 flasks at a density of 25×10^4 cells/flask. Cultures never became completely confluent according to the manufacturer's instructions. They were passaged using trypsin-EDTA solution once they reached 70-80% confluency. For differentiation, 3T3-L1 cells were seeded and after 24 h (day 1), cell differentiation was induced by changing the medium to high glucose DMEM containing 10% (v/v) heat inactivated FBS, 1% penicillin-streptomycin, 10 µg/mL insulin, 0.25 µM Dexamethasone (GAP), 0.5 mM IBMX (=differentiation medium I). On day 3, the medium was changed to high glucose DMEM containing 10% FBS, 1% penicillin- streptomycin, and 10 µg/mL insulin (=differentiation medium II). Thereafter, medium was changed every other day switching between differentiation medium I and differentiation medium II until day 12 or 23, when adipocytes were harvested. Control group preadipocytes were seeded at a higher density and harvested after two days. Test compounds were administered either at the initiation of differentiation, or after 15 days of differentiation and with every medium change. To determine the effect on preadipocyte differentiation, cells were seeded and after 24 h they were treated with neorogioldiol. Neorogioldiol was maintained in the culture medium throughout cell differentiation period. To determine the effect of neorogioldiol on mature adipocytes, cells were seeded and induced to differentiate for 14 days, then on day 15 neorogioldiol was added to the differentiation medium for 24 h before cells were harvested. Each compound used was diluted in a 90% carbowax™ 400, 10% (v/v) absolute ethanol solution serving as a control solvent. The final concentration in culture was 0.09% (v/v) carbowax and 0.01% (v/v) ethanol. Compounds were used at the following concentrations: neorogioldiol (1) 62.5µM and neorogioltriol (2) 25µM.
Adipocytes and preadipocytes were harvested using the TRI Reagent®. RNA isolation was carried out according to the manufacturer's instructions. The purified RNA was quantified using the Nanodrop micro-volume spectrophotometer and 500 ng of each sample were used as a template for reverse transcription. cDNA synthesis was performed using the PrimeScriptTM RT reagent Kit (TaKaRa, RR037A) according to manufacturer's instructions. The cDNA produced by the above described procedure was diluted and used as a template for two-step quantitative PCR in a StepOnePlus™ Real-Time PCR System (Applied Biosystems™, 4376600) for a maximum of 40 cycles, as follows: start step 95 °C for 3 min, repeat steps: 95 °C for 15 s and 60 °C for 30 s. Amplification was performed using KAPA SYBR® FAST Universal qPCR kit (Kapa Biosystems, KK4618) according to manufacturer's instructions. Relative quantitative analysis was accomplished calculating fold-changes of gene expression as 2-(ΔΔCt), where ΔCt is (Ct (gene of interest) - Ct (housekeeping gene)). Ppib was used as internal control gene in 3T3L1 cells and in the fat fraction of mice abdominal fat, Rps9 was used as internal control gene in the stromal vascular fraction of mice abdominal fat and Actb was used as internal control gene in liver samples. Table 1. List of primers used for quantitative real-time PCR analysis.

[2] = tested on: 3T3-L1 cells; assay: as above; format: cell-based, Mouse; details: mature adipocytes: differentiated 15 days, then 62.5 µM for 8 more days
[3] = cells differentiated in the presence of compound, 12 days, 1 at 62.5 µM, 2 at 25 µM
[4] = differentiation in presence of serial concentrations 62.5, 31.25, 15.625, 7.81 and 3.9 µM, dose-dependent
[5] = mature adipocytes: differentiated 15 days, then 62.5 µM for 8 more days

neorogioldiol was tested. Which Gapdh expression ([1]; adipocytes) did it give?
Its Gapdh expression is “decreasing”.

And the Hk2 expression ([1]; adipocytes)?
The Hk2 expression was “decreasing”.

And the Pfkfb3 expression ([1]; adipocytes)?
The Pfkfb3 expression was “decreasing”.

And the Adipoq expression levels [1, 3]?
Its Adipoq expression levels is “restricted the increase”.

What about the “Dlkl mRNA expression” value [1, 3] of the same substance?
The value was “diminished”.

And the Lep expression levels [1, 3]?
Its Lep expression levels is “restricted the increase”.

And the Slc2a4 expression levels [1, 3]?
Its Slc2a4 expression levels is “restricted the increase”.

And the Lep levels [1, 4]?
The Lep levels was “restricted the increase”.

What about the Slc2a4 levels [1, 4] of the same substance?
Its Slc2a4 levels is “restricted the increase”.

What about the Adipoq expression [1, 5] of the same substance?
Its Adipoq expression is “decreased the expression”.

What about the Fabp4 expression [1, 5] of the same substance?
The Fabp4 expression was “decreased the expression”.

What about the Pparg expression [1, 5] of the same substance?
Its Pparg expression is “decreased the expression”.

What about the Gapdh expression ([1]; preadipocytes) of the same substance?
Its Gapdh expression is “downregulated”.

And the Hk2 expression ([1]; preadipocytes)?
The Hk2 expression was “downregulated”.

What about the Pfkfb3 expression ([1]; preadipocytes) of the same substance?
Its Pfkfb3 expression is “downregulated”.

And the Dlkl expression [2]?
The Dlkl expression was “did not affect the expression”.

What about the Lep expression [2] of the same substance?
The Lep expression was “decreased the expression”.

What about the Slc2a4 expression [2] of the same substance?
The Slc2a4 expression was “decreased the expression”.
